Assay [1] has as its target T1, NTSR1-RlucII (Mus musculus, UniProt O88319).
T1 construct: expressed in transfected cells; host or cells: HEK293 (HEK293SL)
Kind of assay: NTSR1-RlucII internalization ebBRET assay (NTSR1-RlucII donor, rGFP-CAAX acceptor) in HEK293 cells. It is filed as cell-based.
Protocol: Cells were maintained in Dulbecco’s Modified Eagle Medium (DMEM, Wisent, Saint-Jean-Baptiste, QC, Canada) supplemented with 10% fetal bovine serum (FBS, Wisent) and 1% antibiotics [100 U/mL penicillin and 100 μg/mL streptomycin (PS); Wisent]. Cells were grown at 37°C in 5% CO2 and 90% humidity and checked for mycoplasma contamination. Two days prior to experiments, cells were trypsinized (Wisent) and 35,000 cells were transfected with 1 μg of total DNA containing the appropriate expression vectors/biosensors. The total quantity of DNA was completed at 1 μg with salmon sperm DNA (Invitrogen, Waltham, MA, USA). Transfection was performed using the transfecting agent polyethylenimine 25 kD linear (PEI; Polysciences, Warrington, PA, USA) at a ratio of 3:1 PEI/DNA. Cells were then immediately plated onto poly-ornithine (Sigma-Aldrich) coated 96-well white culture plates (PerkinElmer, Waltham, MA, USA).
Forty-eight hours post-transfection, cells were washed once with phosphate-buffered saline (PBS) then incubated 1 h at 37°C in Tyrode buffer (137 mM NaCI, 0.9 mM KCI, 1 mM MgCI2, 1 1.9 mM NaHCO3, 3.6 mM NaH2PO4, 25 mM HEPES, 5.5 mM Glucose, and 1 mM CaCI2, pH 7.4). Cells were then treated with the ligands and prior to measurement treated with the substrate (5 min with 2.5 μM Coelantarazine 400a). Bioluminescence resonance energy transfer (BRET) was then measured between RlucII (BRET energy donor) and rGFP (enhanced bystander ebBRET acceptor)–tagged proteins. BRET values were read for 1 s per well using a Mithras™ LB940 Multimode Microplate Reader (Berthold Technologies, Bad Wildbad, Germany) for concentration–response curves. ebBRET values were obtained by calculating the ratio of the light emitted by the energy acceptor over the light emitted by the energy donor (donor 410 ± 70 nm/acceptor 515 ± 20 nm). Data were collected using the MicroWin 2000 software (Berthold Technologies, Bad Wildbad, Germany). They were then fitted and analyzed in GraphPad Prism (v9.0, GraphPad Software, Inc., San Diego, CA, USA).
A decrease in BRET indicates receptor loss from the plasma membrane. […] Data are expressed as raw BRET signal (Mean ± SEM) from five independent experiments.
We set-up an enhanced bystander bioluminescence energy resonance transfer (ebBRET) assay by fusing RlucII at the NTSR1 C-tail and expressing this construct together with rGFP-CAAX in HEK293 cells (Figure 1A).

Assay [2] has as its target T2, NTSR1-Venus (Mus musculus, UniProt O88319).
T2 construct: monitoring endogenous NTSR1-Venus receptor endocytosis could differentiate NTSR1 agonists; endogenous in cells; host or cells: primary hippocampal neurons from homozygous NTSR1-Venus knock-in mice (C57BL/6N background)
Kind of assay: Gq activation ebBRET (Gq EMTA, p63RhoGEF-RlucII / rGFP-CAAX) in HEK293 cells, Venus tagged NTSR1. It is filed as cell-based. Particulars: mean ± SEM.
Description: The mouse coding sequence of NTSR1 was PCR amplified from pCMV6-mNTSR1 (Origene, Rockville, MD, USA) and subcloned upstream from the IRES feature with a STOP codon before IRES into pIRES (Invitrogen, Waltham, MA, USA) and pIRES-Venus vector previously described ([Hamdan et al., 2005]) resulting in expression of either untagged NTSR1 or NTSR1-Venus. […] The pIRES vector was used The rGFP-CAAX BRET and Gq GEMTA biosensors construct were generated as previously described ([Namkung et al., 2016]; [Avet et al., 2022]).
HEK293 clonal cell line (HEK293SL cells), hereafter referred as HEK293 cells, were a gift from S. Laporte (McGill University, Montreal, Quebec, Canada) and previously described ([Namkung et al., 2016]). Cells were maintained in Dulbecco’s Modified Eagle Medium (DMEM, Wisent, Saint-Jean-Baptiste, QC, Canada) supplemented with 10% fetal bovine serum (FBS, Wisent) and 1% antibiotics [100 U/mL penicillin and 100 μg/mL streptomycin (PS); Wisent]. Cells were grown at 37°C in 5% CO2 and 90% humidity and checked for mycoplasma contamination. […] The total quantity of DNA was completed at 1 μg with salmon sperm DNA (Invitrogen, Waltham, MA, USA). […]
Forty-eight hours post-transfection, cells were washed once with phosphate-buffered saline (PBS) then incubated 1 h at 37°C in Tyrode buffer (137 mM NaCI, 0.9 mM KCI, 1 mM MgCI2, 1 1.9 mM NaHCO3, 3.6 mM NaH2PO4, 25 mM HEPES, 5.5 mM Glucose, and 1 mM CaCI2, pH 7.4). […] Bioluminescence resonance energy transfer (BRET) was then measured between RlucII (BRET energy donor) and rGFP (enhanced bystander ebBRET acceptor)–tagged proteins. BRET values were read for 1 s per well using a Mithras™ LB940 Multimode Microplate Reader (Berthold Technologies, Bad Wildbad, Germany) for concentration–response curves. ebBRET values were obtained by calculating the ratio of the light emitted by the energy acceptor over the light emitted by the energy donor (donor 410 ± 70 nm/acceptor 515 ± 20 nm). […] They were then fitted and analyzed in GraphPad Prism (v9.0, GraphPad Software, Inc., San Diego, CA, USA). […]

For assay [3], the system named is hippocampal neurons from Ntsr1^WT/WT mice. The assay can be described thus: Intracellular calcium release (Fluo-4) in hippocampal neurons from Ntsr1^WT/WT mice. Type of assay: cell-based, mouse. (In general: Calcium flux is commonly read through the fluorescence of an indicator in the cells.)
In assay [4] the test system is hippocampal neurons from Ntsr1^Venus/Venus mice. Kind of assay: Intracellular calcium release (Fluo-4) in hippocampal neurons from Ntsr1^Venus/Venus mice. Type of assay: cell-based, mouse. On the procedure: To isolate hippocampal neurons, P0 pups were removed from the cage of NTSR1-Venus homozygous knock-in breeding pairs. Pups were decapitated, brains were removed dorsal side up into fresh ice-cold Hank’s balanced salt solution (HBSS; Gibco, Grand Island, NY, USA), meninges were removed, and hippocampi were dissected into Hibernate A (Gibco, Grand Island, NY, USA) on ice. Tissue dissociation was carried out with the Papain Dissociation System according to the manufacturer’s protocol (Worthington Biochemical Corporation, Lakewood, NJ, USA). Neurons were plated on Poly-D-Lysine (Sigma) coated surfaces at 100,000 cells per 12 mm coverslip (NeuVitro, Camas, WA, USA) in a 24-well plate for immunostaining or 50,000 cells per well of an 8 well chamber slide (Ibidi, Grafelfing, Germany) for calcium measurements. Plating media [Neurobasal A (Gibco, Grand Island, NY, USA), 1% FBS (Fisher Scientific), 2% B-27 (Gibco, Grand Island, NY, USA), 0.5 mM GlutaMAX (Gibco, Grand Island, NY, USA), and 1x Penicillin/Streptomycin (Invitrogen, Waltham, MA, USA)] was exchanged 1 h after plating to maintenance media (Neurobasal A, 2% B-27, 0.5 mM GlutaMAX, and 1x Penicillin/Streptomycin). Half of the volume of media was exchanged for fresh media every 3–4 days. On day in vitro (DIV) 3 Cytosine arabinoside hydrochloride (Sigma) was added to media with a final concentration of 0.1 μM to decrease glial cell proliferation.
Hippocampal neurons were grown until DIV 7. Fluo-4 NW Calcium Assay kit (Thermo Fisher) was used according to the manufacturer’s protocol. Briefly, drugs were prepared at 4 μM stock solutions in the assay buffer provided without probenecid. […] Fluorescence was imaged with a 10x objective on an (Olympus, Shinjuku City, Tokyo, Japan) IX73 microscope (Fluo-4 em. 506 nm).
Live imaging settings of Fluo-4 were as follows, 79 ms exposure, 2 s intervals for 90 cycles (180 s). […] First regions of interest (ROI) were automatically determined using the analyze particles plug in. […] Relative fluorescence is defined as F/F0 where F corresponds to the cell fluorescence and F0 to the basal fluorescence.

“And” between values parts separate entries of the source, which are not always exact repeats. Identical values can stand only once. Counter-ions that a name gives are not always drawn. Like-named read-outs stand apart in the source and are kept apart here. *1 amine or outer side, *2 acyl side, *3 side chain or, on linkers, in order; H or OH if unused. Where a SMILES comes first, the peptide text is derived from it. [ ]: non-standard residue; d: D form. X1 = NCCCC[C@H](N)CN([C@@H](CCCCN)C(=O)[*:2])[*:1]; Tle = CC(C)(C)[C@H](N)C(=O)O

Experimental findings from publication PMC9745132, “Visualization of real-time receptor endocytosis in dopamine neurons enabled by NTSR1-Venus knock-in mice” (Frontiers in Cellular Neuroscience, 2022) are described below.

T1 sequence (O88319 whole entry): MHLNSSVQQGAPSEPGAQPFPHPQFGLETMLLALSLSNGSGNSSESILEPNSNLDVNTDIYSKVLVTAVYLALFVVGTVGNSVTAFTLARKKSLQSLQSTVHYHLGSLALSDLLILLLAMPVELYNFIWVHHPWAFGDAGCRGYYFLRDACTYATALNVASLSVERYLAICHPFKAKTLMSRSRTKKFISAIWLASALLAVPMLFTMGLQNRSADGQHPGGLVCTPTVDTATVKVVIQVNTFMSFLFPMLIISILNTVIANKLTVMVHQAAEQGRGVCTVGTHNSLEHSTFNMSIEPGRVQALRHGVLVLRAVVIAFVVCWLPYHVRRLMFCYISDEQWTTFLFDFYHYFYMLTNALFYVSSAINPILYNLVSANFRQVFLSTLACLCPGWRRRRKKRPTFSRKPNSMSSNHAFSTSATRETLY
T2 sequence (O88319 whole entry): as above

On to `CCOC(=O)[C@H](CC(C)C)NC(=O)[C@@H](NC(=O)[C@H](Cc1c[nH]c2ccccc12)NC(=O)[C@@H]1CCCN1C(=O)[C@H](CCCCN)NC[C@@H](N)CCCCN)C(C)(C)C` [PD149163, PD149163 tetrahydrochloride hydrate] (H-[X1]PW[Tle]L-OEt; N-terminus and C-terminus assumed), for which the EC50 in assay [1] (NTSR1-RlucII, read-out: potency to induce NTSR1 internalization) was 3.07e-07 M; in assay [1] (given as LogEC50 (negative sign), mean ± SEM, five independent experiments, read-out: Potency [LogEC50 (M)], NTSR1-RlucII internalization (converted)), 3.07e-07 M; in assay [2] (given as LogEC50 (negative sign), read-out: Potency [LogEC50 (M)], Gq activation, NTSR1-Venus (converted)), 3.05e-08 M. Also, in assay [1] (decrease in BRET = receptor loss from membrane, mean ± SEM), the “Efficacy (Raw BRET), NTSR1-RlucII internalization” value is −0.245 Raw BRET and −0.245 ± 0.008 Raw BRET. Besides, in assay [2], the “Efficacy (Raw BRET), Gq activation, NTSR1-Venus” value was 0.476 Raw BRET and 0.476 ± 0.009 Raw BRET. Also, the “intracellular calcium peak increase” value in assay [3] (0.1 μM), in assay [3] (1 μM), in assay [4] (0.1 μM) and in assay [4] (1 μM) was 2 fold in each case.
